# Where “and” joins values, the source holds several entries; their conditions need not be identical. Equal values may be shown once. Toxic doses and inconclusive results are not listed.
# Tested on: L1210 leukemia ip in BDF1 mice, survival T/C
# Assay: NCI In Vivo Anticancer Drug Screen. Data for tumor model L1210 Leukemia (intraperitoneal) in B6D2F1 (BDF1) mice
# Details: endpoint: mean survival time, higher = longer survival
# Summary of the method: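 Mice bearing the transplanted tumor received compound or vehicle. Survival of the treated group was divided by that of the vehicle-treated control group to give the ratio.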
# [1] = dose: 100.0 mg/kg/injection, schedule: Q01DX001 (ip), vehicle: saline
# [2] = dose: 200.0 mg/kg/injection, schedule: Q01DX001 (ip), vehicle: saline
# [3] = dose: 400.0 mg/kg/injection, schedule: Q01DX001 (ip), vehicle: saline
# [4] = dose: 100.0 mg/kg/injection, schedule: Q04DX002 (ip), vehicle: saline
# [5] = dose: 200.0 mg/kg/injection, schedule: Q04DX002 (ip), vehicle: saline
# [6] = dose: 100.0 mg/kg/injection, schedule: Q01DX009 (ip), vehicle: Klucel (hydroxypropylcellulose) (HPC)
# [7] = dose: 100.0 mg/kg/injection, schedule: Q04DX003 (ip), vehicle: Klucel (hydroxypropylcellulose) (HPC)
# [8] = dose: 200.0 mg/kg/injection, schedule: Q01DX009 (ip), vehicle: Klucel (hydroxypropylcellulose) (HPC)
# [9] = dose: 200.0 mg/kg/injection, schedule: Q04DX003 (ip), vehicle: Klucel (hydroxypropylcellulose) (HPC)
# [10] = dose: 400.0 mg/kg/injection, schedule: Q04DX003 (ip), vehicle: Klucel (hydroxypropylcellulose) (HPC)
# [11] = dose: 25.0 mg/kg/injection, schedule: Q01DX009 (ip), vehicle: Klucel (hydroxypropylcellulose) (HPC)
# [12] = dose: 50.0 mg/kg/injection, schedule: Q01DX009 (ip), vehicle: Klucel (hydroxypropylcellulose) (HPC)
# [13] = dose: 50.0 mg/kg/injection, schedule: Q04DX002 (ip), vehicle: saline
# [14] = dose: 400.0 mg/kg/injection, schedule: Q04DX002 (ip), vehicle: saline
structure (smiles),measurement,setting,value
O=C(O)C(O)C(=O)O.[NH2-].[NH2-].[Pt+2],T/C,"dose: 1.0 mg/kg/injection, schedule: Q01DX001 (ip), vehicle: other",94 % of control
same,T/C,"dose: 2.0 mg/kg/injection, schedule: Q01DX001 (ip), vehicle: other",95 % of control
same,T/C,"dose: 2.0 mg/kg/injection, schedule: Q01DX009 (ip), vehicle: other",101 % of control
same,T/C,"dose: 4.0 mg/kg/injection, schedule: Q01DX001 (ip), vehicle: other",98 % of control
same,T/C,"dose: 4.0 mg/kg/injection, schedule: Q01DX009 (ip), vehicle: other",101 % of control
same,T/C,"dose: 8.0 mg/kg/injection, schedule: Q01DX001 (ip), vehicle: other",98 % of control
same,T/C,"dose: 8.0 mg/kg/injection, schedule: Q01DX009 (ip), vehicle: other",101 % of control
same,T/C,"dose: 16.0 mg/kg/injection, schedule: Q01DX001 (ip), vehicle: other",101 % of control
same,T/C,"dose: 25.0 mg/kg/injection, schedule: Q04DX003 (ip), vehicle: saline",112 % of control
same,T/C,"dose: 32.0 mg/kg/injection, schedule: Q01DX001 (ip), vehicle: other",109 % of control
same,T/C,"dose: 32.0 mg/kg/injection, schedule: Q01DX009 (ip), vehicle: other",187 % of control
same,T/C,"dose: 40.0 mg/kg/injection, schedule: Q01DX001 (ip), vehicle: other",122 % of control
same,T/C,"dose: 60.0 mg/kg/injection, schedule: Q01DX001 (ip), vehicle: other",158 % of control
same,T/C,"dose: 80.0 mg/kg/injection, schedule: Q01DX001 (ip), vehicle: other",168 % of control
same,T/C,"dose: 100.0 mg/kg/injection, schedule: Q01DX001 (ip), vehicle: other",114 % of control
same,T/C,"dose: 128.0 mg/kg/injection, schedule: Q01DX001 (ip), vehicle: other",121 % of control
CCC1(NS(=O)(=O)c2ccc(N)cc2)C(=O)N(C)C(=O)N(C)C1=O,T/C,[1],94 % of control
same,T/C,[2],94 % of control
same,T/C,[3],91 % of control
O=C(OC1CCC(c2ccccc2)C1)c1cc([N+](=O)[O-])cc([N+](=O)[O-])c1 (stereo unspecified),T/C,"dose: 75.0 mg/kg/injection, schedule: Q04DX003 (ip), vehicle: other",96 % of control
same,T/C,"dose: 150.0 mg/kg/injection, schedule: Q04DX003 (ip), vehicle: other",92 % of control
same,T/C,"dose: 300.0 mg/kg/injection, schedule: Q04DX003 (ip), vehicle: other",87 % of control
COc1ccc(N2CCN(c3c4c(nc5ccccc35)CCCCC4)CC2)cc1,T/C,[1],95 % of control
same,T/C,[2],106 % of control
same,T/C,[3],101 % of control
O=C(O)/C(I)=C(\I)C(=O)O,T/C,[4],106 % of control
same,T/C,[5],117 % of control
CC(C)CCCC(C)C1CCC2C3CC=C4CC(O)CCC4(C)C3CCC12C (stereo unspecified) (tested in a mixture with another compound),T/C,"dose: 50.0 mg/kg/injection, schedule: Q01DX009 (ip), vehicle: water",94 % of control
same,T/C,"dose: 100.0 mg/kg/injection, schedule: Q01DX001 (ip), vehicle: water",102 % of control and 108 % of control
same,T/C,"dose: 100.0 mg/kg/injection, schedule: Q01DX009 (ip), vehicle: water",102 % of control
same,T/C,"dose: 100.0 mg/kg/injection, schedule: Q04DX003 (ip), vehicle: water",90 % of control
same,T/C,"dose: 200.0 mg/kg/injection, schedule: Q01DX001 (ip), vehicle: water",105 % of control
same,T/C,"dose: 200.0 mg/kg/injection, schedule: Q01DX009 (ip), vehicle: water",103 % of control
same,T/C,"dose: 200.0 mg/kg/injection, schedule: Q04DX003 (ip), vehicle: water",88 % of control
same,T/C,"dose: 400.0 mg/kg/injection, schedule: Q01DX001 (ip), vehicle: water",105 % of control
same,T/C,"dose: 400.0 mg/kg/injection, schedule: Q04DX003 (ip), vehicle: water",87 % of control
CC1=C(Cl)C(=O)C(C)=C(Cl)C1=O,T/C,"dose: 10.0 mg/kg/injection, schedule: Q01DX001 (ip), vehicle: saline",90 % of control
same,T/C,"dose: 20.0 mg/kg/injection, schedule: Q01DX001 (ip), vehicle: saline",92 % of control
same,T/C,"dose: 40.0 mg/kg/injection, schedule: Q01DX001 (ip), vehicle: saline",108 % of control
CC(=O)Oc1cc(C)c(OC(C)=O)c2ccccc12,T/C,[6],96 % of control
same,T/C,[7],96 % of control
same,T/C,[8],93 % of control
same,T/C,[9],103 % of control
same,T/C,[10],96 % of control
CN(C(=O)N(CCCl)N=O)c1ccccc1,T/C,"dose: 100.0 mg/kg/injection, schedule: Q01DX001 (ip), vehicle: carboxymethylcellulose (CMC)",104 % of control
same,T/C,"dose: 200.0 mg/kg/injection, schedule: Q01DX001 (ip), vehicle: carboxymethylcellulose (CMC)",104 % of control
same,T/C,"dose: 400.0 mg/kg/injection, schedule: Q01DX001 (ip), vehicle: carboxymethylcellulose (CMC)",105 % of control
COc1ccc(-c2c(C(=O)O)cccc2[N+](=O)[O-])c(OC)c1,T/C,"dose: 100.0 mg/kg/injection, schedule: Q01DX003 (ip), vehicle: Klucel (hydroxypropylcellulose) (HPC)",98 % of control
same,T/C,"dose: 200.0 mg/kg/injection, schedule: Q01DX003 (ip), vehicle: Klucel (hydroxypropylcellulose) (HPC)",91 % of control
same,T/C,"dose: 400.0 mg/kg/injection, schedule: Q01DX003 (ip), vehicle: Klucel (hydroxypropylcellulose) (HPC)",86 % of control
CCOC(=O)C(=Cc1ccc(Cl)cc1)C(=O)OCC,T/C,[11],95 % of control
same,T/C,[12],97 % of control
same,T/C,[6],102 % of control
same,T/C,[7],107 % of control
same,T/C,[9],98 % of control
same,T/C,[10],100 % of control
Nc1cc(S(=O)(=O)O)cc2cc(S(=O)(=O)O)cc(O)c12,T/C,[13],92 % of control
same,T/C,[4],100 % of control and 118 % of control
same,T/C,[5],92 % of control
same,T/C,[14],122 % of control and 92 % of control
O=S(=O)(c1ccccc1)N1CCCCC1,T/C,[7],100 % of control
same,T/C,[9],97 % of control
same,T/C,[10],100 % of control
CN(C)N=Nc1ccccc1I,T/C,[6],103 % of control
same,T/C,[8],104 % of control and 105 % of control
same,T/C,"dose: 400.0 mg/kg/injection, schedule: Q01DX009 (ip), vehicle: Klucel (hydroxypropylcellulose) (HPC)",113 % of control and 116 % of control
same,T/C,"dose: 600.0 mg/kg/injection, schedule: Q01DX009 (ip), vehicle: Klucel (hydroxypropylcellulose) (HPC)",115 % of control
CCC(CO)NC1CCCC1 (stereo unspecified),T/C,"dose: 75.0 mg/kg/injection, schedule: Q01DX001 (ip), vehicle: acid diluted with saline",100 % of control
same,T/C,"dose: 150.0 mg/kg/injection, schedule: Q01DX001 (ip), vehicle: acid diluted with saline",100 % of control
same,T/C,"dose: 300.0 mg/kg/injection, schedule: Q01DX001 (ip), vehicle: acid diluted with saline",100 % of control
COc1ccc2c(c1OC)C1(CCN(C)C)CC(O)CCC1C=C2 (stereo unspecified),T/C,"dose: 100.0 mg/kg/injection, schedule: Q04DX003 (ip), vehicle: saline",102 % of control
same,T/C,"dose: 200.0 mg/kg/injection, schedule: Q04DX003 (ip), vehicle: saline",102 % of control
O=C(/C=C/c1ccc2c(c1)OCO2)c1ccc(OCc2ccccc2)cc1,T/C,"dose: 25.0 mg/kg/injection, schedule: Q04DX002 (ip), vehicle: saline",111 % of control
same,T/C,[13],108 % of control
same,T/C,[4],118 % of control
same,T/C,[5],96 % of control
same,T/C,[14],92 % of control
CC(=O)Nc1c(Cl)cc2c(c1Cl)C(=O)c1ccccc1-2,T/C,[7],105 % of control
same,T/C,[9],100 % of control
same,T/C,[10],103 % of control
CSc1ncnc2c1ncn2C1OC(CCc2ccccc2)C(O)C1O (stereo unspecified),T/C,"dose: 100.0 mg/kg/injection, schedule: Q01DX001 (ip), vehicle: Klucel (hydroxypropylcellulose) (HPC)",100 % of control
same,T/C,"dose: 200.0 mg/kg/injection, schedule: Q01DX001 (ip), vehicle: Klucel (hydroxypropylcellulose) (HPC)",96 % of control
same,T/C,"dose: 400.0 mg/kg/injection, schedule: Q01DX001 (ip), vehicle: Klucel (hydroxypropylcellulose) (HPC)",98 % of control
Cc1cc(C)c(NC(=O)c2c(Cl)c(Cl)c(Cl)c(Cl)c2C(=O)O)c(C)c1,T/C,[11],102 % of control
same,T/C,[12],105 % of control
same,T/C,[6],94 % of control and 116 % of control
CCc1c(Cl)c(C)cc(O)c1Cl,T/C,"dose: 25.0 mg/kg/injection, schedule: Q01DX009 (ip), vehicle: gum acacia",98 % of control
same,T/C,"dose: 25.0 mg/kg/injection, schedule: Q04DX003 (ip), vehicle: gum acacia",100 % of control
same,T/C,"dose: 50.0 mg/kg/injection, schedule: Q01DX009 (ip), vehicle: gum acacia",98 % of control
same,T/C,"dose: 50.0 mg/kg/injection, schedule: Q04DX003 (ip), vehicle: gum acacia",90 % of control
same,T/C,"dose: 100.0 mg/kg/injection, schedule: Q04DX003 (ip), vehicle: gum acacia",96 % of control

# From PubChem BioAssay AID248 (DTP/NCI, 2004)
